Data set [1] deals with SUDHL10. Put plainly: Induction of cytotoxicity (CellTiter-Glo, 5 h), SUDHL10. A general note: Cellular ATP, detected with luciferase, serves as a proxy for viable cell number.
Data set [2] deals with A2780. Put plainly: Anti-proliferative effect (CellTiter-Glo, 72 h), A2780. The class given is cell-based. The conditions noted are these: A2780 cells, median, read-out: IC50 antiproliferation assay A2780 [M] (median). In a few lines: (§1)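 Luminescence from CellTiter-Glo, read 10 min after reagent addition, reports viable cell content after 72 h of compound treatment at 37 °C. A reference plate read at day 0 gives the starting baseline.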

The subject of data set [3] is SUDHL5. Description: Induction of cytotoxicity (CellTiter-Glo, 5 h), SUDHL5.
Data set [4] relates to SUDHL5. Description: Anti-proliferative effect (CellTiter-Glo, 72 h), SUDHL5. Type of data set: cell-based. Conditions: SUDHL5 cells, antiproliferation, median, read-out: Antiproli SUDHL5 [M] (median). The procedure, abridged:
as §1

The test system of data set [5] is SUDHL10. Description: Anti-proliferative effect (CellTiter-Glo, 72 h), SUDHL10. The class given is cell-based. The conditions noted are these: SUDHL10 cells, antiproliferation, median, read-out: Antiproli SUDHL10 [M] (median). The procedure, abridged:
as §1

Data set [6] deals with SUDHL10. Description: Induction of caspase-3/7 activity (Caspase-Glo 3/7), SUDHL10. Type of data set: cell-based. The conditions noted are these: caspase-3/7 induction, SUDHL10 cells, 3 h treatment, median. In a few lines:
(§2)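 Apoptosis induction measured as caspase-3/7 activity (Caspase-Glo 3/7) in DLBCL lines after 3 h treatment at 37 °C; EC50 derived relative to the reference compound's maximal induction, with C0 fixed at 1.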

Data set [7] concerns SUDHL5. Description: Induction of caspase-3/7 activity (Caspase-Glo 3/7), SUDHL5. The class given is cell-based. Conditions: caspase-3/7 induction, SUDHL5 cells, 3 h treatment, median. The procedure, abridged: as §2
The test system of data set [8] is MV-4-11. Description: Anti-proliferative effect (CellTiter-Glo, 72 h), MV-4-11. The class given is cell-based. Conditions: median, read-out: IC50 antiproliferation assay MV-4-11 [M] (median). The procedure, abridged: as §1
The target of data set [9] is MCL-1 (Homo sapiens, UniProt Q07820). Description: Protein-protein interaction assay MCL-1/Noxa BH3 peptide (MCL-1 assay), TR-FRET. The class given is binding. The conditions noted are these: MBP-MCL-1 / Noxa BH3-derived peptide, median. The procedure, abridged:
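Inhibition values were normalized between DMSO controls with all reagents and controls lacking MCL-1. The binding competition used 1 nM MBP-MCL-1 in pH 7 Tris buffer containing 50 mM KF and 100 mM NaCl, with a 10 min compound preincubation at 22 °C.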
(In TR-FRET formats the signal depends on donor and acceptor labels being close together.)

For data set [10], the system named is OPM2. Description: Anti-proliferative effect (CellTiter-Glo, 72 h), OPM2. Type of data set: cell-based. The conditions noted are these: OPM2 cells, median, read-out: IC50 antiproliferation assay OPM2 [M] (median). The procedure, abridged: as §1
[11] abbreviates: Homo sapiens, MV4-11, 72 h, MV-4-11 cells.
[12] abbreviates: read-out: Cytotox SUDHL10 [M] (median), SUDHL10 cells, cytotoxicity induction, CellTiter-Glo, 5 h incubation, median.
Where [13] appears, read: read-out: Cytotox SUDHL5 [M] (median), SUDHL5 cells, cytotoxicity induction, CellTiter-Glo, 5 h incubation, median.
[14] abbreviates: read-out: Cytotox SUDHL10 [M] (median), SUDHL10 cells, cytotoxicity induction, CellTiter-Glo, 5 h, median.
The mark [15] stands for this setting: read-out: Cytotox SUDHL5 [M] (median), SUDHL5 cells, cytotoxicity induction, CellTiter-Glo, 5 h, median.

Where a name gives a salt, the structure may show the parent alone. Read-outs that look alike come from different tables or passages of the source. Some results are limits rather than exact numbers.

By EC50 is commonly meant the concentration that produces a half-maximal response.

Chain of MCL-1 (Q07820 whole entry): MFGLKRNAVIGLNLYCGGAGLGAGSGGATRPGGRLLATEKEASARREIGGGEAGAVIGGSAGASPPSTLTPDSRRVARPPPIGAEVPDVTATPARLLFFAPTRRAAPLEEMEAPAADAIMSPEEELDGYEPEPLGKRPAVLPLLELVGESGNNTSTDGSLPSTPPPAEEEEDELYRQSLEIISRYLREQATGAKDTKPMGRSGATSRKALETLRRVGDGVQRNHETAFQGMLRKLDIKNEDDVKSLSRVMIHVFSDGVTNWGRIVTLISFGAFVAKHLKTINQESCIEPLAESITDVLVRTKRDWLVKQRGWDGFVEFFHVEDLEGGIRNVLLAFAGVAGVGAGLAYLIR

With `Cc1nn(C)c2c1-c1cccc3c(CCCOc4cccc5ccccc45)c(C(=O)O)n(c13)CCCCOC2` (single isomer, unassigned; enantiomer 1) [Example 317, (+)-1,3-dimethyl-7-[3-(naphthalen-1-yloxy)propyl]-1,10,11,12,13,15-hexahydropyrazolo[4′,3:9,10][1,6]oxazacycloundecino[8,7,6-hi]indole-8-carboxylic Acid (Enantiomer 1)], the IC50 is above 3.3e-05 M in [1] (Homo sapiens, SU-DHL10, 5 h, read-out: Cytotox SUDHL10 [M] (median), SUDHL10 cells, cytotoxicity induction, CellTiter-Glo, 5 h, median); above 3.3e-05 M in data set [2] (Homo sapiens, A2780, 72 h); 1.55e-05 M in [3] (Homo sapiens, SU-DHL-5, 5 h, read-out: Cytotox SUDHL5 [M] (median), SUDHL5 cells, cytotoxicity induction, CellTiter-Glo, 5 h, median); 2.71e-05 M in data set [4] (Homo sapiens, SU-DHL-5, 72 h, 72 h); above 3.3e-05 M in data set [5] (Homo sapiens, SU-DHL10, 72 h, 72 h); 2.34e-05 M in [8] (setting [11]). Moreover, in data set [9], the IC50 turned out to be 0.0115 µM. The EC50 in data set [6] (Homo sapiens, SU-DHL10, 3 h) is above 33 µM; in [7] (Homo sapiens, SU-DHL-5, 3 h), 24.5 µM.
Consider `COCC(=O)N1CCN(c2ccc(OCc3nn(C)c4c3-c3cccc5c(CCCOc6cccc7ccccc67)c(C(=O)O)n(c35)CCCCOC4)cc2)CC1` (single isomer, unassigned; enantiomer 2) [Example 1-29, 3-({4-[4-(methoxyacetyl)piperazin-1-yl]phenoxy}methyl)-1-methyl-7-[3-(naphthalen-1-yloxy)propyl]-1,10,11,12,13,15-hexahydropyrazolo[4′,3′:9,10][1,6]oxazacycloundecino[8,7,6-hi]indole-8-carboxylic Acid (Enantiomer 2)], for which the IC50 in [1] (setting [12]) was 6.87e-06 M; in data set [2], 2.38e-05 M; in data set [3] (setting [13]), 3.29e-06 M; in data set [4] (Homo sapiens, SU-DHL-5, 72 h, 72 h incubation) it was 3.26e-06 M; in [8] (setting [11]) it was 2.58e-06 M; in data set [9] it was 0.00119 µM. Also, in [10], the IC50 came out at 4.53e-06 M. The values for the EC50 in [6] and in data set [7] were 5.26 µM and 2.64 µM, respectively.
As to `Cc1cc(OCCCc2c(C(=O)O)n3c4c(cccc24)-c2c(C)nn(C)c2COCCC3)cc(C)c1Cl` (single isomer, unassigned; enantiomer 2) [Example 015, 1-[3-(4-chloro-3,5-dimethylphenoxy)propyl]-9,11-dimethyl-5,6,8,9-tetrahydro-4H-pyrazolo[4′,3′:8,9][1,5]oxazecino[7,6,5-hi]indole-2-carboxylic acid-N-ethylethanamine Salt (Enantiomer 2)], the IC50 in [1] (setting [12]) worked out at 2.87e-05 M; in data set [2], 1.23e-05 M; in data set [3] (setting [13]), 2.1e-05 M; in data set [4] (72 h incubation), 1.13e-05 M; in data set [5] (72 h incubation), 8.48e-06 M; in data set [8] (setting [11]) it was 1.33e-05 M. In addition, in [9], the IC50 was found to be 0.00958 µM. Further, the EC50 was found to be 29.2 µM in data set [6] and 25.7 µM in data set [7].
For the compound `CCc1c2c(nn1C)CN(C)CCCn1c(C(=O)O)c(CCCOc3cccc4ccccc34)c3cccc-2c31` (single isomer, unassigned; enantiomer 2) [Example 143, 11-ethyl-7,10-dimethyl-1-[3-(1-naphthyloxy)propyl]-4,5,6,7,8,10-hexahydropyrazolo[3′,4′:7,8][1,5]diazecino[9,10,1-hi]indole-2-carboxylic acid-N-ethylethanamine Salt (Enantiomer 2)], the IC50 was found to be 2.69e-05 M in data set [1] (setting [12]); 1.21e-05 M in data set [2]; 1.36e-05 M in [3] (setting [13]); 1.44e-05 M in data set [4] (72 h incubation); 2.02e-05 M in [5] (72 h incubation); 1.2e-05 M in [8] (setting [11]). This compound registered an IC50 in [9] of 0.0308 µM. For the same compound, the EC50 in data set [6] is above 33 µM; in data set [7] it was 25 µM.
On to `CCc1c2c(nn1CCN1CCOCC1)COCCCCn1c(C(=O)O)c(CCCOc3cccc4ccccc34)c3cccc-2c31` (single isomer, unassigned; enantiomer 2) [Example 203, 3-ethyl-2-[2-(morpholin-4-yl)ethyl]-7-[3-(naphthalen-1-yloxy)propyl]-2,10,11,12,13,15-hexahydropyrazolo[4′,3′:9,10][1,6]oxazacycloundecino[8,7,6-hi]indole-8-carboxylic Acid (Enantiomer 2)], for which the IC50 in [1] (setting [12]) was 4.31e-06 M; in data set [2], 2.21e-05 M; in data set [3] (setting [13]), 1.32e-06 M; in data set [4] (72 h incubation), 2.19e-06 M; in [5] (72 h incubation), 1.78e-06 M; in [8] (setting [11]), 2.8e-06 M. The IC50 in [9] was 0.0021 µM. Further, the 50% effective concentration (EC50) in [6] turned out to be 7.45 µM; in data set [7], 1.61 µM.
Regarding `Cc1nn(C)c2c1-c1cccc3c(CCCOc4cccc5ccccc45)c(C(=O)O)n(c13)CCCCOC2` (single isomer, unassigned; enantiomer 2) [Example 318, (−)-1,3-dimethyl-7-[3-(naphthalen-1-yloxy)propyl]-1,10,11,12,13,15-hexahydropyrazolo[4′,3′:9,10][1,6]oxazacycloundecino[8,7,6-hi]indole-8-carboxylic Acid (Enantiomer 2)], the IC50 is above 3.3e-05 M in data set [1] (setting [14]); above 3.3e-05 M in data set [2]; 1.62e-05 M in data set [3] (setting [15]); 1.84e-05 M in [4] (72 h); 2.72e-05 M in data set [5] (72 h); 3.28e-05 M in [8] (MV-4-11 cells). This compound returned an IC50 in data set [9] of 0.0131 µM. The half-maximal effective concentration (EC50) was above 33 µM in data set [6] and 26.4 µM in data set [7].
For the compound `Cn1nc(CN2CCCCC2)c2c1COCCCCn1c(C(=O)O)c(CCCOc3cccc4ccccc34)c3cccc-2c31` (single isomer, unassigned; enantiomer 2) [Example 334, 1-methyl-7-[3-(naphthalen-1-yloxy)propyl]-3-(piperidin-1-ylmethyl)-1,10,11,12,13,15-hexahydropyrazolo[4′3′:9,10][1,6]oxazacycloundecino[8,7,6-hi]indole-8-carboxylic Acid (Enantiomer 2)], the IC50 in data set [1] (setting [14]) worked out at 2.67e-05 M; in data set [2], 2.87e-05 M; in [3] (setting [15]) it was 1.85e-05 M; in [4] (72 h), 1.68e-05 M; in [5] (72 h), 1.54e-05 M; in data set [8] (setting [11]) it was 1.47e-05 M. In addition, the IC50 in data set [9] worked out at 0.0917 µM. In addition, the values for the concentration for a half-maximal effect (EC50) in data set [6] and in data set [7] were 25.7 µM and 16.9 µM, respectively.
Turning to `Cn1nc(CN2CC3(COC3)C2)c2c1COCCCCn1c(C(=O)O)c(CCCOc3cccc4ccccc34)c3cccc-2c31` (single isomer, unassigned; enantiomer 2) [Example 345, 1-methyl-7-[3-(naphthalen-1-yloxy)propyl]-3-(2-oxa-6-azaspiro[3.3]hept-6-ylmethyl)-1,10,11,12,13,15-hexahydropyrazolo[4′,3′:9,10][1,6]oxazacycloundecino[8,7,6-hi]indole-8-carboxylic acid-N-ethylethanamine Salt (Enantiomer 2)], the IC50 in data set [1] (setting [14]) stood at 1.32e-05 M; in data set [2], 1.59e-05 M; in data set [3] (setting [15]), 8.32e-06 M; in data set [4] (72 h), 7.32e-06 M; in [5] (72 h), 5.68e-06 M; in data set [8] (Homo sapiens, MV4-11, MV-4-11 cells), 7.47e-06 M. In data set [9], this compound returned an IC50 of 0.026 µM. Also, the EC50 in [6] amounted to 12.8 µM; in data set [7] it was 7.02 µM.

For the origin of these results see patent US10981932B2, “Macrocyclic indole derivatives” (Bayer Aktiengesellschaft, priority 2016, dated 2021).
